# Measurements reported in paper PMC4880513 (Journal of natural products, 2015).
# “Also recorded” adds a separate entry of the source. Read-outs that look alike come from different tables or passages of the source. Marks after values point to notes of the source that are not given here.
# Key:
# Male Swiss Webster mice [1] = experiment: mouse tetrad assay: overall cannabimimetic action; settings: ip, result in words
# [2] = target: full-length human cannabinoid-2 receptor (Homo sapiens, UniProt P34972); experiment: CB2 receptor radioligand binding assay
# Chain of full-length human cannabinoid-2 receptor (P34972 whole entry): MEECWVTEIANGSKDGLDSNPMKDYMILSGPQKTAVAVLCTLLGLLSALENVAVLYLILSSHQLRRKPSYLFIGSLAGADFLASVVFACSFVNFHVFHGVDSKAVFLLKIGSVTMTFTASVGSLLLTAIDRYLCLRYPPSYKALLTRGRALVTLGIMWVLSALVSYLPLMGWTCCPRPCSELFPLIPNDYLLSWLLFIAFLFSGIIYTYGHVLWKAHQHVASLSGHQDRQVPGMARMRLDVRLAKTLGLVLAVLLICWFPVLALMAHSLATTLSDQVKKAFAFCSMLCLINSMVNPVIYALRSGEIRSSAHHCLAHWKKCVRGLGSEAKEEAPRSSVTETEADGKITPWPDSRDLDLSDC
# CB1 receptor = CB1 receptor (Homo sapiens, UniProt P21554); experiment: functional assays at CB1 receptor; format: biochemical; settings: result in words
# Chain of CB1 receptor (P21554 whole entry): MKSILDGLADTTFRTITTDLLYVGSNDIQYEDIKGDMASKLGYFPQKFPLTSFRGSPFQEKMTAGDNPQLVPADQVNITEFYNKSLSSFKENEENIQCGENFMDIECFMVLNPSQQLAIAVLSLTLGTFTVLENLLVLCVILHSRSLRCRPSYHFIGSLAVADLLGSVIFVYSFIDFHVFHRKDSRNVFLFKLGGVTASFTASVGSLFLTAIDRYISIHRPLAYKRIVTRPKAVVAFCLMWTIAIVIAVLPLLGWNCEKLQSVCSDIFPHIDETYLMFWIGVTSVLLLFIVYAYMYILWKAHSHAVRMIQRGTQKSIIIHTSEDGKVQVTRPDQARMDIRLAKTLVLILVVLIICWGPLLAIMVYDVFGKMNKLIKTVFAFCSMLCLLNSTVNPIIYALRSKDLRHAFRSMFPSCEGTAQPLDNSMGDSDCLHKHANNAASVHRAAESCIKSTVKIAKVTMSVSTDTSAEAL
# [3] = target: full-length human cannabinoid-1 receptor (Homo sapiens, UniProt P21554); settings: radioligand binding
# Chain of full-length human cannabinoid-1 receptor (P21554 whole entry): as above
# CB2 receptor = CB2 receptor (Homo sapiens, UniProt P34972); experiment: functional assays at CB2 receptor; format: biochemical; settings: result in words
# Chain of CB2 receptor (P34972 whole entry): as the sequence (P34972 whole entry) above
# Male Swiss Webster mice [4] = experiment: mouse tetrad assay: rectal temperature; settings: difference between basal and postinjection temperatures, mean ± SEM
# Male Swiss Webster mice [5] = experiment: mouse tetrad assay: locomotor activity; settings: for hypolocomotive activity: ip, across doses, result in words; for locomotor activity: total photobeam interruptions, last 10 min of 30 min, mean ± SEM
# Male Swiss Webster mice [6] = experiment: mouse tetrad assay: catalepsy; settings: latency to drop, cutoff 180 s, mean ± SEM
# Male Swiss Webster mice [7] = experiment: mouse tetrad assay: tail-flick latency; settings: cutoff 15 s, mean ± SEM
# Male Swiss Webster mice [8] = experiment: mouse tetrad assay: hot-plate latency; settings: cutoff 45 s, mean ± SEM
molecule,measurement,setting,value
"CCCCCc1cc(O)c2c(c1)OC(C)(C)[C@@H]1CC=C(C)[C@H](O)[C@@H]21 [Compound 3, 10α-hydroxy-Δ^8-tetrahydrocannabinol]",cannabimimetic-like action in the mouse tetrad assay,Male Swiss Webster mice [1]; at the doses tested,most potent cannabimimetic-like actions; also recorded: typical cannabimimetic actions
same,binding affinity (nM) CB2,[2],nearly as tightly as THC
same,functional activity at CB1 receptor,CB1 receptor,partial agonist
same,functional activity at CB1 receptor,CB1 receptor; listed as compound 3,partial CB1 agonist
same,binding affinity (nM) CB1,[3],nearly as tightly as THC
same,binding affinity (nM) CB1,[3]; listed as compound 3,highest affinity
same,functional activity at CB2 receptor,CB2 receptor,partial agonist
"CCCCCc1cc(O)c2c(c1)OC(C)(C)[C@@H]1C[C@H](O)C(C)=C[C@@H]21 [Compound 1, 8α-hydroxy-Δ^9-tetrahydrocannabinol]",cannabimimetic activity in the mouse tetrad assay,Male Swiss Webster mice [1]; dose of 20 mg/kg,did not exhibit typical cannabimimetic activity
"CCCCCc1cc(O)c2c(c1)OC(C)(C)[C@@H]1CC=C(C)C[C@@H]21 [Δ^8-THC, Δ^8-tetrahydrocannabinol]",decrease in rectal temperature (°C),Male Swiss Webster mice [4]; 5 mg/kg ip,0.12 ± 0.09 °C
same,decrease in rectal temperature (°C),Male Swiss Webster mice [4]; 20 mg/kg ip,1.96 ± 0.37 ^a °C
"CCCCCc1cc(O)c2c(c1)OC(C)(C)[C@@H]1C[C@@H](O)C(C)=C[C@@H]21 [Compound 2, 8β-hydroxy-Δ^9-tetrahydrocannabinol]",cannabimimetic-like action in the mouse tetrad assay,Male Swiss Webster mice [1]; at the doses tested,lacked any cannabimimietic activity
same,cannabimimetic-like action in the mouse tetrad assay,Male Swiss Webster mice [1]; doses up to 20 mg/kg,lacked typical cannabimimetic-like action
same,hypolocomotive activity,Male Swiss Webster mice [5],dose-dependent hypolocomotive effect only
same,hypolocomotive activity,Male Swiss Webster mice [5]; listed as compound 2,significant dose-dependent hypolocomotive activity
"CCCCCc1cc(O)c2c(c1)OC(C)(C)[C@@H]1CC=C(C)[C@@H](O)[C@@H]21 [Compound 4, 10β-hydroxy-Δ^8-tetrahydrocannabinol]",effects in the mouse tetrad assay,"Male Swiss Webster mice [1]; 40 mg/kg (highest tested dose), 40 mg/kg",hypothermic and antinociceptive activity
same,cannabimimetic-like action in the mouse tetrad assay,Male Swiss Webster mice [1]; at the doses tested,partial cannabimimetic action
"CCCCCc1cc(O)c2c(c1)OC(C)(C)[C@@H]1CC[C@@]3(C)O[C@H]3[C@@H]21 [Compound 6, 9β,10β-epoxyhexahydrocannabinol]",cannabimimetic-like action in the mouse tetrad assay,Male Swiss Webster mice [1]; at the doses tested,most potent cannabimimetic-like actions
(−)-trans-Δ^9-tetrahydrocannabinol [Δ^9-THC],catalepsy latency,Male Swiss Webster mice [6]; 10 mg/kg ip,14.4 ± 4.16 s
same,catalepsy latency (s),Male Swiss Webster mice [6]; 20 mg/kg ip,47.9 ± 20.04 ^b s
same,catalepsy latency (s),Male Swiss Webster mice [6]; 40 mg/kg ip,37.7 ± 14.64 ^a s
same,tail-flick latency (% MPE),Male Swiss Webster mice [7]; 10 mg/kg ip,6.52 ± 2.00 % MPE
same,tail-flick latency (% MPE),Male Swiss Webster mice [7]; 20 mg/kg ip,42.21 ± 17.04 ^b % MPE
same,tail-flick latency (% MPE),Male Swiss Webster mice [7]; 40 mg/kg ip,51.96 ± 13.22 ^c % MPE
same,decrease in rectal temperature (°C),Male Swiss Webster mice [4]; 10 mg/kg ip,2.05 ± 0.25 °C
same,decrease in rectal temperature (°C),Male Swiss Webster mice [4]; 20 mg/kg ip,4.25 ± 0.78 ^c °C
same,decrease in rectal temperature (°C),Male Swiss Webster mice [4]; 40 mg/kg ip,4.80 ± 0.28 ^c °C
same,locomotor activity,Male Swiss Webster mice [5]; 10 mg/kg ip,190.9 ± 33.8 ^c
same,locomotor activity,Male Swiss Webster mice [5]; 20 mg/kg ip,276.2 ± 52.6 ^c
same,locomotor activity,Male Swiss Webster mice [5]; 40 mg/kg ip,194.0 ± 49.2 ^c
same,hot-plate latency (% MPE),Male Swiss Webster mice [8]; 10 mg/kg ip,29.04 ± 5.37 ^c % MPE
same,hot-plate latency (% MPE),Male Swiss Webster mice [8]; 20 mg/kg ip,46.85 ± 9.08 ^c % MPE
same,hot-plate latency (% MPE),Male Swiss Webster mice [8]; 40 mg/kg ip,38.18 ± 4.05 ^c % MPE
